Consider four compounds from patent US20240360159A1, “NOVEL APPLICATIONS FOR OXAZABOROLIDINES AND NEW METHODS OF MANUFACTURE THEREOF” (Pathway Intermediates Limited, priority 2021, published 2024).

Data set [1] has as its system broiler (Ross 308; mixed sex). Briefly: Growth performance in broilers, feed additives vs ampicillin (Example 5). Format: in vivo. The following applies: for ADFI / ADG / BW / FCR / Mortality / Survivability: 0.1% in feed. The method, then:
The pure oxazaborolidines prepared by the method of Example 1 was investigated to assess its potential as a growth promotor in poultry.
(§1) 1200 birds, 1-day old broiler (Ross 308; mixed sex) were treated over 32 days. 4 dietary groups were assessed with 6 replicates per diet; 50 birds per pen. The four Dietary groups consisted of (1) a control basal diet and (2) feed supplemented with a feed additive according to an embodiment of the present invention (0.1% 2-butyl-3,4 dimethyl-5-phenyl 1,3,2-oxazaborolidine-compound 2), (3) feed supplemented with a feed additive according to another embodiment of the present invention (0.1% 3,4-dimethyl-2-5-diphenyl-1,3,2-oxazaborolidine-compound 1) and (4) feed supplemented with the known antibiotic, ampicillin (0.1%).
(§2) The feeding programme followed a typical feeding program on a farm (3 phases: starter; grower; finisher) with the feed additives added to the basal diet with top dressing.
(§3) The following measurements were taken:
Growth Performance: Body weight (BW); Weight gain (Average Daily Gain—ADG); Feed intake (Average Daily Feed Intake—ADFI); FCR (food conversion ratio—feed input divided by feed output); Mortality Production Index.

In data set [2] the test system is broiler (Ross 308; mixed sex). Nature of the data set: Growth performance in broilers, feed additive (Example 4). The following applies: 0.055% in feed. The data set is classed as in vivo. How it is done:
The pure oxazaborolidine compound 5 (R)-(+)-2-Methyl-CBS-oxazaborolidine prepared according to Example 1 was investigated to assess its potential as a growth promoter in poultry.
240 birds, 1-day old broiler (Ross 308; mixed sex) were treated over 32 days. Two dietary groups were given six replicates per diet; […]. The two treatments consisted of (1) a control basal diet and (2) feed supplemented with a feed additive according to an embodiment of the present invention (0.055% (R)-(+)-2-Methyl-CBS-oxazaborolidine).
as §2, §3
Growth Performance: Body weight (BW); Weight gain (Average Daily Gain-ADG); Feed intake (Average Daily Feed Intake—ADFI); FCR (food conversion ratio-feed input divided by feed output).

The test system of the next data set is cecal microbiome. Nature of the data set: Cecal bacterial microbiome α-diversity by 16S sequencing (Example 5). The following applies: first week; genus level; compared to the basal control; p=0.0184 (Compound 1) and 0.0393 (Compound 2), two-way ANOVA; 0.1% in diet. Format: in vivo, broiler chickens. How it is done:
as §1
Microbiome: Cecal samples were harvested at three time points (week 1, week 3 and week 5). Six replicates were harvested per dietary group. Total DNA was purified and the bacterial microbiome was analysed by 16S sequencing.
Plots display the smallest and largest value as the whiskers, with the box comprising the 25th percentile, median and 75th percentile.

Setting [3] is: 0.1% in diet, compared to the basal diet Control.

Marks after values point to notes of the source that are not given here.

As to `CC1(C)S[C@@H]2[C@H](NC(=O)[C@H](N)c3ccccc3)C(=O)N2[C@H]1C(=O)O` [ATB, ampicillin, reference compound], in data set [1] (Grower (8-21 d)), the ADFI is on record as 85.9^A g, the ADG is 62.6^A g, the BW was 1074.6^A g and the FCR is on record as 1.42^bc. Further, the Mortality in data set [1] (Grower (8-21 d)) was 1.53%. In data set [1] (Grower (22-32 d)), the ADFI is 155.9^A g, the ADG was 83.0^A g, the BW is on record as 1987.4^A g and the FCR came to 2.06. The compound further displayed a Mortality in data set [1] (Grower (22-32 d)) of 0.00%. In addition, in data set [1] (Overall (1-32 d)), the ADFI is 96.0^A g, the ADG is on record as 60.7^A g, the FCR is listed as 1.66^y and the Survivability was 95.4%. For the same compound, in data set [1] (Starter (1-7 d)), the ADFI is reported as 21.9^A g, the ADG is 22.0^A g, the BW was 199.1^A g and the FCR is reported as 0.99^C. This compound returned a Mortality in data set [1] (Starter (1-7 d)) of 2.33%.
Regarding `CB1OC(c2ccccc2)(c2ccccc2)[C@H]2CCCN12` [Compound 5, (R)-(+)-2-Methyl-CBS-oxazaborolidine], the ADFI in data set [2] (Finisher (22-32 d)) was determined as 147.8 g; in data set [2] (Grower (8-21 d)), 68.3 g; in data set [2] (Overall (1-32 d)), 89.5 g; in data set [2] (Starter (1-7 d)), 15.5 g. Moreover, the ADG in data set [2] (Finisher (22-32 d)) was determined as 90.1 g; in data set [2] (Grower (8-21 d)), 48.3 g; in data set [2] (Overall (1-32 d)) it was 58.2 g; in data set [2] (Starter (1-7 d)), 14.2 g. Also, the BW in data set [2] (Finisher (22-32 d)) is 2078.6 g; in data set [2] (Grower (8-21 d)) it was 816.9 g; in data set [2] (Starter (1-7 d)), 140.7 g. In addition, the FCR was found to be 1.64 in data set [2] (Finisher (22-32 d)), 1.41 in data set [2] (Grower (8-21 d)), 1.52 in data set [2] (Overall (1-32 d)) and 1.08 in data set [2] (Starter (1-7 d)).
For the compound `C[C@H]1[C@@H](c2ccccc2)OB(c2ccccc2)N1C` [Compound 1, 3,4-dimethyl-2-5-diphenyl-1,3,2-oxazaborolidine], the “decrease of overall FCR” value in data set [1] (setting [3]) is 0.59%. In addition, in data set [1] (Grower (8-21 d)), the ADFI is listed as 72.7^C g, the ADG is listed as 51.5^C g, the BW is 892.8^C g and the FCR is reported as 1.46^ab. In addition, the Mortality in data set [1] (Grower (8-21 d)) was found to be 0.37%. Moreover, in data set [1] (Grower (22-32 d)), the ADFI is recorded as 133.5^C g, the ADG is 70.6^C g, the BW is on record as 1669.4^C g and the FCR is 2.08. Further, the Mortality in data set [1] (Grower (22-32 d)) is 0.40%. In data set [1] (Overall (1-32 d)), the ADFI was 82.0^C g, the ADG is 50.8^C g, the FCR is given as 1.69^x and the Survivability stood at 97.9%. In addition, in data set [1] (Starter (1-7 d)), the ADFI was 19.5^B g, the ADG is recorded as 18.2^C g, the BW was 172.4^C g and the FCR was 1.07^A. The Mortality in data set [1] (Starter (1-7 d)) worked out at 1.00%. For the same compound, in the data set on cecal microbiome, the “α-diversity of the cecal microbiome” value was “significantly increased”.
Take `CCCCB1OC(c2ccccc2)C(C)N1C` (stereo not drawn) [Compound 2, 2-butyl-3,4 dimethyl-5-phenyl 1,3,2-oxazaborolidine]: in data set [1] (setting [3]), the “decrease of overall FCR” value was found to be 1.76%, the “increase of overall ADFI” value worked out at 4.6% and the “increase of overall ADG” value was 5.7%. In data set [1] (Grower (8-21 d)), the ADFI is on record as 80.7^B g, the ADG is recorded as 58.6^B g, the BW is reported as 1002.2^B g and the FCR was 1.42^c. Further, the Mortality in data set [1] (Grower (8-21 d)) was found to be 1.12%. Moreover, in data set [1] (Grower (22-32 d)), the ADFI is 144.0^B g, the ADG was 76.1^B g, the BW is 1839.0^B g and the FCR is on record as 2.09. The Mortality in data set [1] (Grower (22-32 d)) stood at 0.42%. Further, in data set [1] (Overall (1-32 d)), the ADFI is reported as 89.3^B g, the ADG was 56.1^B g, the FCR was 1.67^xy and the Survivability stood at 96.7%. Also, in data set [1] (Starter (1-7 d)), the ADFI is recorded as 20.4^B g, the ADG was 19.6^B g, the BW is 182.0^B g and the FCR is on record as 1.04^B. This compound also returned a Mortality in data set [1] (Starter (1-7 d)) of 1.33%. For the same compound, the “increase in body weight gain” value in data set [1] (finisher phase, 0.1% in diet, compared to the basal diet Control) was determined as 5.7%. Further, in data set [1] (grower phase, 0.1% in diet, compared to the basal diet Control), the “increase in body weight gain” value was 8.7%. Further, the “increase in body weight gain” value in data set [1] (starter phase, 0.1% in diet, compared to the basal diet Control) was determined as 4.5%. In the data set with cecal microbiome, the “α-diversity of the cecal microbiome” value is “significantly increased”.
